Data: patent publication US8420697B2, “Treatment of acute exacerbation of asthma and reduction of likelihood of hospitalization of patients suffering therefrom” (MediciNova, Inc., priority 2009, dated 2013)
Structures can show the parent of a compound that is named as a salt. Marks after values point to notes of the source that are not given here.

Legend:
[1] = target: T1, Human β1 (Homo sapiens, UniProt P08588); assay: Competitive binding (Cerep 14320), human β1; details: HEK (Human β1)
T1 construct: host or cells: HEK
From the text: (§1) The Active Agent (MN-221 a/k/a bedoradrine or its pharmaceutically acceptable salts) administered intravenously allows it to distribute and partition into the congested lung tissue of AEA patients and allow bronchodilation without undue cardiovascular side effects. Table 1, below, provides an example of the adrenoceptor action profile for MN-221 determined experimentally: [table]

[2] = target: T2, Hu β2 (Homo sapiens, UniProt P07550); assay: Competitive binding (Cerep 14320), human β2
T2 construct: host or cells: CHO
From the text: as §1

[3] = target: T1, Human β1; assay: Cell bioassay, cAMP accumulation, human β1 in HEK; format: cell-based; details: read-out: cell bioassay (EC50 cAMP accum.) β1
From the text: as §1

[4] = target: T2, Hu β2; assay: Cell bioassay, cAMP accumulation, human β2 in CHO; format: cell-based
From the text: as §1

[5] = system: β1 (GP Rt atrium); assay: Ex vivo organ bioassay (Cerep 13271), GP right atrium
From the text: as §1

[6] = target: T3, β2 (GP carbachol-tx trachea) (Cavia porcellus, UniProt Q8K4Z4); assay: Ex vivo organ bioassay (Cerep 13271), GP carbachol-treated trachea
T3 construct: tissue Cerep; host or cells: guinea pig trachea, carbachol-contracted
From the text: as §1

[7] = system: ragweed sensitized dogs; assay: Reversal of ragweed-induced bronchoconstriction in sensitized dogs; format: in vivo; details: i.v. 0.04 to 0.4 mg/kg; between 0.75 and 6.7 min after dosing; p<0.001 up to 4.5 min, p<0.01 up to 6.7 min
[8] = system: telemetered dogs; assay: Cardiovascular safety in telemetered dogs, i.v. MN-221 with nebulized albuterol; format: in vivo; details: for heart rate, agent alone: albuterol inhaled 5 or 10 ug/kg, MN-221 i.v. over 15 min 0.3, 3 or 30 ug/kg; for MAP or QTc, agent alone: either agent at any dose
Experimental: In a separate study with telemetered dogs at the Lovelace Respiratory Research Institute, the effect of i.v. MN-221 administration in addition to nebulized albuterol was performed to assess cardiovascular changes and safety of the combination therapy. Albuterol was administered by inhalation at 5 or 10 ug/kg and MN-221 was intravenously administered over 15 min at 0.3, 3, or 30 ug/kg. […] See, FIG. 4.

[9] = system: patients with severe AEA; assay: Clinical study of MN-221 plus SOC in emergency department patients with AEA; format: in vivo, humans
Experimental: MN-221 was tested at escalating doses of 240 μg to 1,080 μg in patients with AEA treated in emergency departments (EDs). The study included 29 (13 treated with SOC only and 16 treated with MN-221 in combination with SOC) patients with severe AEA. All patients were administered SOC treatment as follows: supplemental oxygen given to maintain oxygen saturation measured by pulse oximetry of ≧90%; two doses of inhaled beta2-agonist (in this study, albuterol 5 mg) via nebulizer given approximately every 20 minutes; simultaneously with two doses of an inhaled anti-cholinergic agent (in this study, ipratropium 0.5 mg) via nebulizer given approximately every 20 minutes; one dose of corticosteroid given orally (in this study, prednisone 60 mg) or intravenously (in this study, methylprednisolone 125 mg), and intravenous magnesium sulfate (2 gm, diluted with 50-100 mL normal saline) and given over 10 minutes to patients with an FEV1≦25% of predicted upon ED presentation treatment.
MN-221 was administered at the following doses: 16 μg/min for 15 minutes (total of 240 μg); 30 μg/min for 15 minutes (total of 450 μg); 16 μg/min for 15 minutes; 8 μg/min for 105 minutes (total of 1,080 μg). A lyophilized unit dose for of MN-221, containing 2 mg MN-221 and lactose in a 10 mL vial was employed in the administration. Vials containing 2 mg (2000 μg) of MN-221 and vials containing placebo were reconstituted as follows. 4 mL of 5% dextrose in water was added to each 10 mL vial containing MN-221 to make 500 μg/mL stock solution (2000 μg/4 mL=500 μg/mL). 2 mL (1,000 μg) of stock solution was added to 123 mL 5% dextrose in water to make the total volume of 125 mL (123 mL+2 mL=125 mL). Final MN-221 solution equal to 1,000 μg/125 mL or 8 μg/mL was prepared this way.
Patients were administered SOC treatment (inhaled albuterol, 2.5 mg via nebulizer up to every 20 minutes) and ipratropium (0.5 mg via nebulizer up to every 20 minutes) in addition to treatment with MN-221 or placebo.

T2 sequence (P07550 whole entry): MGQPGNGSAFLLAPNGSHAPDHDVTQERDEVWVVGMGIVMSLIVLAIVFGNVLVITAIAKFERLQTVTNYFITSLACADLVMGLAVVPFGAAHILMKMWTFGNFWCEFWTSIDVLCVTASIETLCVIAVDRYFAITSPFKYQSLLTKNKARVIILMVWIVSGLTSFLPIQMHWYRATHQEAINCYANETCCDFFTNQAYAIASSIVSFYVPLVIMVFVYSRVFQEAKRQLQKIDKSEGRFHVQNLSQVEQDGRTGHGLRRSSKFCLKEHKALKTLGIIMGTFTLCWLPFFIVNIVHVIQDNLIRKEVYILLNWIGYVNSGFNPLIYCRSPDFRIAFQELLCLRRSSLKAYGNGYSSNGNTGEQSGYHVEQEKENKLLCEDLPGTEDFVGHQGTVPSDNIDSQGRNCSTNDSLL
T3 sequence (Q8K4Z4 whole entry): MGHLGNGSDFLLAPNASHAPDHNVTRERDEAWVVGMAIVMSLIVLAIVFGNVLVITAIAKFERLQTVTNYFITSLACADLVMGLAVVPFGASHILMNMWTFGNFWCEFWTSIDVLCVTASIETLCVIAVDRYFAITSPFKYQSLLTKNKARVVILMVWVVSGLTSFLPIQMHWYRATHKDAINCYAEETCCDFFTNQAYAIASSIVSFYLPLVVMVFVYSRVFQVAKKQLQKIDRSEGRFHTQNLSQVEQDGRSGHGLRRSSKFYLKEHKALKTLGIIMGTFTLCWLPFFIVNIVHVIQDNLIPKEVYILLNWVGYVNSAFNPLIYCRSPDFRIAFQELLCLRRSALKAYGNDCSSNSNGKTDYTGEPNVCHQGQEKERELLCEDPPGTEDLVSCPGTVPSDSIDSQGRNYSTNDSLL
T1 sequence (P08588 whole entry): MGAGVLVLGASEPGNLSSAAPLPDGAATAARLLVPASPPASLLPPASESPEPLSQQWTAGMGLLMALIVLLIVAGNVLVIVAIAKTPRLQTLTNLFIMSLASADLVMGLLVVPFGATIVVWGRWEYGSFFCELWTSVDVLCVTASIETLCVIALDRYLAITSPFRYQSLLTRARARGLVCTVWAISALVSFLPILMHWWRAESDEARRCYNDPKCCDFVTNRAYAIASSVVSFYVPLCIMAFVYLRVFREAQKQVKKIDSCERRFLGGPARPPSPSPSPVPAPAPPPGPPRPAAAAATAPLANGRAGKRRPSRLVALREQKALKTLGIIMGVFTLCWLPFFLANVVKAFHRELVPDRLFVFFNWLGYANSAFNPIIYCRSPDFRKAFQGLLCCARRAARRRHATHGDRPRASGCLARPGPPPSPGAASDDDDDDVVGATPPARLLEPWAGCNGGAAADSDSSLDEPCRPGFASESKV

| Structure (SMILES) | IC50 [1] [nM] | IC50 ([2]; CHO (Hu β2)) [nM] | Competitive Binding β1/β2 ([2]; ratio of IC50 β1 to β2) | EC50 [3] [nM] | EC50 ([4]; CHO (Hu β2), read-out: cell bioassay (EC50 cAMP accum.) β2) [nM] | cell bioassay cAMP accum. β1/β2 ([4]; ratio of EC50 β1 to β2) | agonist character ([5]; GP Rt atrium) | ex vivo Organ bioassay est EC39 β1 ([5]; GP Rt atrium (% isoprot), EC39 = 39% of isoproterenol maximum response) | Emax ([5]; GP Rt atrium, % of isoproterenol maximum response) | EC50 ([6]; GP carbachol-tx trachea (% salbut)) [nM] | ex vivo Organ bioassay β1/β2 ([6]; ratio of EC39 (atrium) to EC50 (trachea)) | reversal of ragweed-induced bronchoconstriction [7] | MAP, QTc with combination therapy ([8]; MN-221 plus albuterol) | heart rate, agent alone [8] | heart rate, MN-221 added on top of albuterol ([8]; clinically-relevant doses of both) | MAP or QTc, agent alone [8] | safety (ECG, laboratory, adverse experience data) ([9]; MN-221 added to standardized care) | heart rate change in patients ([9]; MN-221 combined with SOC, FIG. 2) | Improvement in FEV1 values versus SOC ([9]; MN-221 in addition to SOC treatment) | hospitalization rate ([9]; MN-221 with SOC, 4 of 16 patients, SOC only 54% (7 of 13)) [%] |
| --- | --- | --- | --- | --- | --- | --- | --- | --- | --- | --- | --- | --- | --- | --- | --- | --- | --- | --- | --- | --- |
| CN(C)C(=O)COc1ccc2c(c1)C[C@@H](NC[C@H](O)c1ccc(O)c(CCO)c1)CC2 [MN-221, acetamide, N,N-dimethyl-2-[[(7S)-5,6,7,8-tetrahydro-7-[[(2R)-2-hydroxy-2-[4-hydroxy-3-(2-hydroxyethyl)phenyl]ethyl]amino]-2-naphthalenyl]oxy], sulfate] | 11800 | 270 | 42 | > 50000 | 13 | >3000 | a partial agonist. | ~1* μM | Emax = 39% | 28 | 36 | statistically significant, and near maximal reversal of bronchoconstriction | not adversely changed | increased heart rate to a modest level | no additional increase in heart rate | No adverse changes | No safety concerns | absence of significant heart rate increase | generally appeared to be greater | 25 |
| CC(C)(C)NCC(O)c1ccc(O)c(CO)c1 (stereo not shown) [albuterol, reference compound] | – | – | – | – | – | – | – | – | – | – | – | – | – | increased heart rate to a modest level | – | No adverse changes | – | – | – | – |
